Consider 20 compounds from patent US5153203A, “Quinolone derivatives and salts thereof, preparation processes thereof, and antibacterial agents containing the same” (Wakunaga Seiyaku Kabushiki Kaisha, priority 1989, dated 1992).

In brackets after ≈: the same amount, converted by molar mass.

Data set [1] deals with S. aureus 209 P (IFO 12732). Briefly: Minimum inhibitory concentration (MIC), standard method of the Japan Society of Chemotherapy. Particulars: Staphylococcus aureus, IFO12732. Format: cell-based. As for the experimental part: (§1) With respect to certain representative compounds among the compounds [I] of the present invention, their minimum inhibitory concentrations (MIC; μg/ml) were measured in accordance with the standard method established by the Japan Society of Chemotherapy [CHEMOTHERAPY, 29(1), 76-79 (1981]. The results are summarized in Table 1, in which the compound numbers are as shown in examples.

A further data set deals with P. aeruginosa (IFO 3445). The data set is described as above. The settings on record: Pseudomonas aeruginosa, IFO3445. The class given is cell-based. As for the experimental part:
as §1

For data set [2], the system named is E. coli NIH JC-2 (IFO 12734). The description is as above. The class given is cell-based. Particulars: Escherichia coli, IFO12734. As for the experimental part:
as §1

The nature of data set [3]: Partition coefficient, phosphate buffer/n-octanol. Format: physicochemical. The settings on record: 50 mM phosphate buffer (pH 7.4, μ=0.15)/n-octanol. As for the experimental part:
Following the method proposed by Akira Tsuji et al. in Antimicrob. Agents Chemother., 32. 190-194 (1988), 50 mM phosphate buffer (pH 7.4, μ=0.15)/n-octanol partition coefficients were measured.

For orientation: MIC means the lowest concentration that inhibits growth of the organism. Low readings indicate a more susceptible organism, high ones a less susceptible organism. Take `Cl.O=C(O)c1cn(C2CC2)c2cc(OC3CCNC3)c(F)cc2c1=O` (centres unmarked) [Compound 1, 7-(3-Pyrrolidinyloxy)-1-cyclopropyl-6-fluoro-1,4-dihydro-4-oxoquinoline-3-carboxylic acid hydrochloride]: the minimum inhibitory concentration (MIC) in data set [1] was found to be 3.13 µg/mL; in the data set with P. aeruginosa (IFO 3445), 3.13 µg/mL; in data set [2], 0.39 µg/mL.
For `Cl.O=C(O)c1cn(C2CC2)c2c(F)c(OC3CCNC3)c(F)cc2c1=O` (centres unmarked) [Compound 2, 7-(3-Pyrrolidinyloxy)-1-cyclopropyl-6,8-difluoro-1,4-dihydro-4-oxoquinoline-3-carboxylic acid hydrochloride], the minimum inhibitory concentration (MIC) came to 0.78 µg/mL in data set [1], 0.78 µg/mL against P. aeruginosa (IFO 3445) and 0.2 µg/mL in data set [2].
In the case of `Cl.Nc1c(F)c(OC2CCNC2)c(F)c2c1c(=O)c(C(=O)O)cn2C1CC1` (centres unmarked) [Compound 8, 7-(3-Pyrrolidinyloxy)-1-cyclopropyl-5-amino-6,8-difluoro-1,4-dihydro-4-oxoquinoline-3-carboxylic acid hydrochloride], the results for the MIC (in data set [1]; in the data set on P. aeruginosa (IFO 3445); in data set [2]) were 0.39 µg/mL, 0.78 µg/mL and 0.1 µg/mL, respectively.
Taken in the same sequence, the figures for `CC1COc2c(OC3CCNC3)c(F)cc3c(=O)c(C(=O)O)cn1c23.Cl` (centres unmarked) [Compound 9, 10-(3-Pyrrolidinyloxy)-9-fluoro-2,3-dihydro-3-methyl-7-oxo-7H-pyrido[1,2,3-de][1,4]-benzoxazine-6-carboxylic acid hydrochloride] were 1.56 µg/mL, 25 µg/mL and 1.25 µg/mL.
With `Cl.O=C(O)c1cn(-c2ccc(F)cc2F)c2nc(OC3CCNC3)c(F)cc2c1=O` (centres unmarked) [Compound 10, 7-(3-Pyrrolidinyloxy)-1-(2,4-difluorophenyl)-6-fluoro-1,4-dihydro-4-oxo-1,8-naphthyridine-3-carboxylic acid hydrochloride], the minimum inhibitory concentration (MIC) in data set [1] came out at 1.56 µg/mL; against P. aeruginosa (IFO 3445), 3.13 µg/mL; in data set [2], 0.78 µg/mL.
Taken in the same sequence, the figures for `CCn1cc(C(=O)O)c(=O)c2cc(F)c(OC3CCN(C)CC3)cc21` [Compound 11, 7-(1-Methyl-4-piperidyloxy)-1-ethyl-6-fluoro-1,4-dihydro-4-oxoquinoline-3-carboxylic acid] were 1.56 µg/mL (≈ 4.48 µM), 12.5 µg/mL (≈ 35.9 µM) and 0.78 µg/mL (≈ 2.24 µM).
Taken in the same sequence, the figures for `CC1COc2c(OC3CCN(C)CC3)c(F)cc3c(=O)c(C(=O)O)cn1c23` (centres unmarked) [Compound 12, 10-(1-Methyl-4-piperidyloxy)-9-fluoro-2,3-dihydro-3-methyl-7-oxo-7H-pyrido[1,2,3-de][1,4]-benzoxazine-6-carboxylic acid] were 1.56 µg/mL (≈ 4.14 µM), 12.5 µg/mL (≈ 33.2 µM) and 1.56 µg/mL (≈ 4.14 µM).
One may read the logD as the decadic logarithm of the distribution of all forms, ionised or not, between an organic phase and buffer at a given pH. Read a low logD as lower lipophilicity. The compound `Nc1c(F)c(OC2CCNCC2)c(F)c2c1c(=O)c(C(=O)O)cn2C1CC1` [Compound 19] showed a pH-dependent lipophilicity (logD) in data set [3] of -0.693.
Consider `O=C(O)c1cn(C2CC2)c2cc(N3CCOC3)c(F)cc2c1=O` [Compound 57, 1-Cyclopropyl-6-fluoro-7-(3-oxazolidinyl)-1,4-dihydro-4-oxoquinoline-3-carboxylic acid], for which the MIC stood at 0.1 µg/mL (≈ 0.314 µM) in data set [1], 0.78 µg/mL (≈ 2.45 µM) with P. aeruginosa (IFO 3445) and 0.2 µg/mL (≈ 0.628 µM) in data set [2].
On the same counts, the results for `CCn1cc(C(=O)O)c(=O)c2cc(F)c(N3CCOC3)cc21` [Compound 58] are 0.39 µg/mL (≈ 1.27 µM), 6.25 µg/mL (≈ 20.4 µM) and 0.78 µg/mL (≈ 2.55 µM).
On the same counts, the results for `CC1CN(c2cc3c(cc2F)c(=O)c(C(=O)O)cn3C2CC2)CO1` (centres unmarked) [Compound 59] are 0.1 µg/mL (≈ 0.301 µM), 0.78 µg/mL (≈ 2.35 µM) and 0.2 µg/mL (≈ 0.602 µM).
Taken in the same sequence, the figures for `CN(C)CC1CN(c2cc3c(cc2F)c(=O)c(C(=O)O)cn3C2CC2)CO1` (centres unmarked) [Compound 60] were 0.2 µg/mL (≈ 0.533 µM), 1.56 µg/mL (≈ 4.16 µM) and 0.2 µg/mL (≈ 0.533 µM).
In data set [3], `CCOC(=O)c1cn(C2CC2)c2c(F)c(N3COC(CN(C)C)C3)c(F)cc2c1=O` (centres unmarked) [Compound 64] gave a logD of -0.316.
As for `O=C(O)c1cn(C2CC2)c2c(F)c(N3CCOC3)c(F)cc2c1=O` [Compound 66, 1-Cyclopropyl-6,8-difluoro-7-(3-oxazolidinyl)-1,4-dihydro-4-oxoquinoline-3-carboxylic acid], the figures for the minimum inhibitory concentration (MIC) (in data set [1]; in the data set with P. aeruginosa (IFO 3445); in data set [2]) were 0.2 µg/mL (≈ 0.595 µM), 1.56 µg/mL (≈ 4.64 µM) and 0.2 µg/mL (≈ 0.595 µM), respectively.
In the case of `CC1CN(c2c(F)cc3c(=O)c(C(=O)O)cn(C4CC4)c3c2F)CO1` (centres unmarked) [Compound 67], the MIC amounted to 0.1 µg/mL (≈ 0.285 µM) in data set [1], 0.78 µg/mL (≈ 2.23 µM) in the data set on P. aeruginosa (IFO 3445) and 0.2 µg/mL (≈ 0.571 µM) in data set [2].
With `CC1COCN1c1c(F)cc2c(=O)c(C(=O)O)cn(C3CC3)c2c1F` (centres unmarked) [Compound 68], the minimum inhibitory concentration (MIC) in data set [1] was found to be 0.2 µg/mL (≈ 0.571 µM); against P. aeruginosa (IFO 3445) it was 3.13 µg/mL (≈ 8.93 µM); in data set [2], 0.78 µg/mL (≈ 2.23 µM).
On the same counts, the results for `CN(C)CC1CN(c2c(F)cc3c(=O)c(C(=O)O)cn(C4CC4)c3c2F)CO1` (centres unmarked) [Compound 69] are 0.2 µg/mL (≈ 0.508 µM), 1.56 µg/mL (≈ 3.97 µM) and 0.2 µg/mL (≈ 0.508 µM).
With `O=C(O)c1cn(C2CC2)c2c(F)c(N3CCOC3)c(F)c(F)c2c1=O` [Compound 72, 1-Cyclopropyl-5,6,8-trifluoro-7-(3-oxazolidinyl)-1,4-dihydro-4-oxoquinoline-3-carboxylic acid], the MIC in data set [1] turned out to be 0.2 µg/mL (≈ 0.565 µM); against P. aeruginosa (IFO 3445), 3.13 µg/mL (≈ 8.83 µM); in data set [2], 0.39 µg/mL (≈ 1.1 µM).
On the same counts, the results for `O=C(O)c1cn(C2CC2)c2c(F)c(N3COC(CO)C3)c(F)cc2c1=O` (centres unmarked) [Compound 74, 1-Cyclopropyl-6,8-difluoro-7-(5-hydroxymethyl-3-oxazolidinyl)-1,4-dihydro-4-oxoquinoline-3-carboxylic acid] are 0.1 µg/mL (≈ 0.273 µM), 0.78 µg/mL (≈ 2.13 µM) and 0.1 µg/mL (≈ 0.273 µM).
Taken in the same sequence, the figures for `O=C(O)c1cn(C2CC2)c2c(F)c(N3CCCOC3)c(F)cc2c1=O` [Compound 76, Cyclopropyl-6,8-difluoro-7-(tetrahydro-1,3-oxazin)-3-yl-1,4-dihydro-4-oxoquinoline-3-carboxylic acid] were 0.39 µg/mL (≈ 1.11 µM), 3.13 µg/mL (≈ 8.93 µM) and 0.39 µg/mL (≈ 1.11 µM).
